Test results as given in patent publication US20220218725A1, “METHODS AND MATERIALS FOR TREATING CANCER” (Mayo Foundation for Medical Education and Research, priority 2019, published 2022).

Assays:
JeKo-1 cells [1] = test: Cell viability, Annexin V/PI assay (also IC50 and combination index); type: cell-based; conditions: for % viability normalized for respective controls: JeKo-1 (MCL), 48 hours, KPT-330 0.1-1.0 μM, CS 1-3 mM, single agent or combination
Experimental: To assess apoptosis and cellular proliferation, all cell lines were treated with CRM 1 inhibitors (concentration ranging from 0.05-2 μM) and salicylates at concentrations ranging from (0.001-10 mM) for 48 hours before analysis was performed. DMSO was used to substitute the drug in controls.
After 48 hours incubation, cells were washed with Annexin buffer solution and stained with both propidium iodide (PI) and FITC-Annexin V (Life Technologies), and assayed on a BD Accuri flow cytometer (BD Biosciences). Apoptosis results were analyzed with BD CellQuest software. For cell cycle analysis, Jeko-1 cell line was intubated with CRM 1 inhibitors (concentrations ranging from […]) and salicylates (concentration at 3 mM) and Ly-1 cell line was intubated with CRM 1 inhibitors (concentrations ranging from 0.1-2.0 μM) and salicylates (concentration at 0.5-5 mM) for 24 and 48 hours and then fixed with 95% cold ethanol and kept at 4 C° for 24 h and subsequently underwent cell cycle analysis after PI staining and analysis was performed using BD FACS caliber flow cytometer (BD Biosciences) and FlowJo software (Tree Star).
Cell lines were purchased from the cell line repositories ATCC (Manassas, Va.) or DSMZ (Braunschweig, Germany). These included MCL cell lines: JeKo-1, Mino; TCL cell lines: Karpas-299, SR-786; DLBCL cell lines: OCI-Ly1 (LY-1), OCI-Ly3 (LY-3), OCI-Ly19 (LY-19), SU-DHL-6 (DHL-6); MM cell lines: RPMI, U266, OPM2, Xgl, KMS2; ALL cell lines: CRL-1783; non-small cell lung cancer: NCI-H460, A549, HCC827; small cell lung cancer: H1048; sarcoma: Fuji, SW872. Cell lines were cultured according to instruction.
KPT-330 purchased from Selleckchem (cat no: S7252) was dissolved in DMSO while CS (Santa Cruz, Calif.S 2016-36-6), sodium salicylate (Sigma-Aldrich, cat no: S3007), acetyl salicylate (Sigma-Aldrich, cat no: CAS 50-78-2) was diluted in PBS. Ketorolac (Sigma-Aldrich, cat no: 1356665), Bortezomib (Selleckchem, cat no: S1013), gemcitabine (Sigma-Aldrich, cat no: G6423), Leptomycin-B (Sigma-Aldrich, cat no: L2913-2X) and KPT-185 (Selleckchem, cat no: S7125) were dissolved in DMSO. The concentration range of KPT-330 was 0.05-1.0 μM while CS was 1-3 mM were used for ex vivo treatment and incubation time ranged from 24 hours to 72 hours. For the PARP inhibitor assay, olaparib 10 μM (SelleckChem, cat no: AZD2281 Ku-0059436) was used.
The viability assessment for cell lines and primary patients samples were conducted with the Annexin V/PI method.
Jeko-1 and OCI-Ly1 cell lines were used to assess the IC50. Keeping CS at 3 mM, KPT-330 was titrated. Relative IC50 was calculated as described elsewhere (see, e.g., Sebaugh et al., Pharmaceutical statistics 10:128-134 (2011)). The combination index was calculated as described elsewhere (see, e.g., Chou et al., Cancer Res 70:440-446 (2010)).

JeKo-1 cells [2] = test: Cell cycle analysis (PI staining, flow cytometry); type: cell-based; conditions: unsynchronized JeKo-1 cells
Experimental: For cell cycle analysis, Jeko-1 cell line was intubated with CRM 1 inhibitors (concentrations ranging from 0.1-0.5p M) and salicylates (concentration at 3 mM) and Ly-1 cell line was intubated with CRM 1 inhibitors (concentrations ranging from 0.1-2.0 μM) and salicylates (concentration at 0.5-5 mM) for 24 and 48 hours and then fixed with 95% cold ethanol and kept at 4 C° for 24 h and subsequently underwent cell cycle analysis after PI staining and analysis was performed using BD FACS caliber flow cytometer (BD Biosciences) and FlowJo software (Tree Star).
Cell Cycle Analysis Following incubation, cells were fixed with 70% cold ethanol and kept at 4 C° for 24 hours, followed by PI staining. Cell cycle analysis was done by using a BD FACS Caliber flow cytometer (BD Biosciences) and analyzed using FlowJo® Software.
A double thymine block was used to synchronize cells at G1 phase of the cell cycle. JeKo-1 cells were cultured in thymidine at 2 mM in RPMI for 9 hours. Subsequently, cells were washed and cultured in RPMI media (RPMI) without additional thymidine for 12 hours and the second block of cell cycle with thymidine (2 mM) was carried out for an additional 9 hours with in RPMI. Following the double thymidine block, cells were released by re-culturing cells in normal RPMI without additional thymidine. The viability of cells at the time of release was >90%. […]

[3] = tested on: CMML patient-derived bone marrow sample; test: Hematopoietic progenitor colony forming assay; type: cell-based, human; conditions: assessed by counting colony forming units in methyl cellulose media, KPT-330 0.05-0.5 μM, CS 1-3 mM
Source text: CMML patient-derived bone marrow samples were first treated with ammonium chloride to deplete red blood cells, washed in RPMI, then plated at a final concentration of 5×10^4-2×10^5 cells/mL in addition to drug(s). This solution was immediately inoculated into methylcellulose (StemCell) formulated with recombinant cytokines to support the optimal growth of erythroid progenitor cells, granulocyte-macrophage progenitor cells, and multipotent granulocyte, erythroid, macrophage and megakaryocyte progenitor cells. Plates were incubated with respective treatment conditions at 37° C. and colonies were enumerated on day 10-14.

BT-474 cells = test: Cell viability, Annexin V/PI assay; type: cell-based; conditions: BT-474 (Breast cancer); 48 hours; KPT-330 0.1-1.0 μM, CS 1-3 mM, single agent or combination
Experimental: (§3) KPT-330 purchased from Selleckchem (cat no: S7252) was dissolved in DMSO while CS (Santa Cruz, Calif.S 2016-36-6), sodium salicylate (Sigma-Aldrich, cat no: S3007), acetyl salicylate (Sigma-Aldrich, cat no: CAS 50-78-2) was diluted in PBS. […] The concentration range of KPT-330 was 0.05-1.0 μM while CS was 1-3 mM were used for ex vivo treatment and incubation time ranged from 24 hours to 72 hours.

JeKo-1 cells [4] = test: Mitotic index calculation; type: cell-based; conditions: 48 hours, light microscopy
Experimental: Following the incubation of respective time periods, cytospin slides were prepared and stained with Hema 3 staining on the many factors protocol. Subsequently the mitotic index was calculated by the number of mitoses evaluated in 10 high power fields (×400).

BT-20 cells = test: Cell viability, Annexin V/PI assay; type: cell-based; conditions: BT-20 (Breast cancer); 48 hours; KPT-330 0.1-1.0 μM, CS 1-3 mM, single agent or combination
Experimental: as §3

OCI-Ly3 cells = test: Cell viability, Annexin V/PI assay; type: cell-based; conditions: OCI-Ly3 (DLBCL); 48 hours; KPT-330 0.1-1.0 μM, CS 1-3 mM, single agent or combination
Experimental: DMSO was used to substitute the drug in controls.
Apoptosis results were analyzed with BD CellQuest software.
Cell lines were cultured according to instruction.

Panc-1 cells = test: Cell viability, Annexin V/PI assay; type: cell-based; conditions: Panc-1 (Pancreatic cancer); 48 hours; KPT-330 0.1-1.0 μM, CS 1-3 mM, single agent or combination
Experimental: (§1) All cell lines were obtained from commercial vendors (ATCC or DSMZ), which includes mantle cell lymphoma (MCL) cell lines: Jeko-1, Mino, JVM-2; T-cell lymphoma (TCL) cell lines: SU-DHL-1, Karpas-299, SR-786 and HUT-78; and diffuse large B-cell lymphoma cell lines: OCI-Ly1, SU-DHL-2, OCI-Ly3, SU-DHL-6; Waldenstrom macroglobulinemia (WM) cell lines: BCWM, MWCL, RPCI; sarcoma cell lines: FUJI, SW872, and pancreatic cancer cell lines: PANC-1.
(§2) WM, TCL, and MCL cell lines were cultured in RPMI media supplemented with 10% fetal bovine serum while DLBCL cell lines were cultured in IMDM media with 10% human serum (Sigma). Pancreatic cancer and sarcoma cell lines were cultured in DMEM with 10% fetal bovine serum. All cell lines were assessed for their viability before use in experiments. Only cells with the viability of 85% or greater were used.

RPCI cells = test: Cell viability, Annexin V/PI assay; type: cell-based; conditions: RPCI (WM); 48 hours; KPT-330 0.1-1.0 μM, CS 1-3 mM, single agent or combination
Experimental: as §1, §2

BCWM cells = test: Cell viability, Annexin V/PI assay; type: cell-based; conditions: BCWM (WM); 48 hours; KPT-330 0.1-1.0 μM, CS 1-3 mM, single agent or combination
Experimental: as §1, §2

MWCL cells = test: Cell viability, Annexin V/PI assay; type: cell-based; conditions: MWCL (WM); 48 hours; KPT-330 0.1-1.0 μM, CS 1-3 mM, single agent or combination
Experimental: as §1, §2

| Structure (SMILES) | IC50 (JeKo-1 cells [1]; Homo sapiens, JeKo-1 (MCL cells), 72 hours, selinexor titrated alone or with CS kept at 3 mM) | % viability normalized for respective controls (JeKo-1 cells [1]) | fraction of cells in the G2/M phase (JeKo-1 cells [2]) | % viability normalized for respective controls [3] | % viability normalized for respective controls (BT-474 cells) | mitotic index (MI) (JeKo-1 cells [4]) | % viability normalized for respective controls (BT-20 cells) | % viability normalized for respective controls (OCI-Ly3 cells) | % viability normalized for respective controls (Panc-1 cells) | % viability normalized for respective controls (RPCI cells) | % viability normalized for respective controls (BCWM cells) | % viability normalized for respective controls (MWCL cells) |
| --- | --- | --- | --- | --- | --- | --- | --- | --- | --- | --- | --- | --- |
| O=C(/C=C\n1cnc(-c2cc(C(F)(F)F)cc(C(F)(F)F)c2)n1)NNc1cnccn1 [KPT-330, (Z)-3-[3-[3,5-bis (trifluoromethyl)phenyl]-1,2,4-triazol-1-yl]-N′-pyrazin-2-ylprop-2-enehydrazide] | 1300 nM | 95% | 15% | 56% | 73% | 153 /10 HPF | 58% | 85% | 90% | 63% | 69% | 65% |
| C[N+](C)(C)CCO.O=C([O-])c1ccccc1O [CS, choline salicylate] | – | 93% | 11% | 53% | 110% | 166 /10 HPF | 89% | 84% | 90% | 92% | 84% | 89% |
